Measured values taken from ChEMBL document CHEMBL3885881, “DrugMatrix”.
Several values for one entry are separate records, joined by “and”; a condition that tells them apart may be missing. Equal entries are not always repeated.

Species on record: Rattus norvegicus
Assay: DrugMatrix - Regimen: Daily Repeat
Type: toxicity, organism-based, Sprague-Dawley
Design: regimen Daily Repeat, gender Male, age 6-8 weeks
Details: in vivo, po, route oral GAVAGE, vehicle 100 % WATER
[1] = 0 mg/kg, 72 h, tissue Blood, dose level Control, time 3 day
[2] = 0 mg/kg, 72 h, tissue Plasma, dose level Control, time 3 day
[3] = 0 mg/kg, 120 h, tissue Blood, dose level Control, time 5 day
[4] = 0 mg/kg, 120 h, tissue Plasma, dose level Control, time 5 day
[5] = 235 mg/kg, 72 h, tissue Blood, dose level Low, time 3 day

CCCC(CCC)C(=O)O [VALPROIC ACID]
ABSOLUTE BASOPHIL [1]: 0 CELLS/uL
ABSOLUTE LYMPHOCYTE [1]: 10696 CELLS/uL and 11257.17 CELLS/uL
ABSOLUTE SEGMENTED NEUTROPHIL [1]: 1045.33 CELLS/uL and 1220.33 CELLS/uL
BASOPHIL [1]: 0%
EOSINOPHIL [1]: 1% and 0.33%
ERYTHROCYTE COUNT [1]: 5.87 x10E6/uL and 5 x10E6/uL
HEMATOCRIT [1]: 38.5% and 32.62%
LEUKOCYTE COUNT [1]: 12.07 x10E3/uL and 12.58 x10E3/uL
LYMPHOCYTE [1]: 88.33% and 89%
MEAN CORPUSCULAR HEMOGLOBIN [1]: 23.47 pg and 25.67 pg
MEAN CORPUSCULAR HEMOGLOBIN CONCENTRATION [1]: 35.7 G/DL and 39.35 G/DL
MEAN CORPUSCULAR VOLUME [1]: 65.63 fL and 65.23 fL
MONOCYTE [1]: 2% and 0.67%
NEUTROPHIL [1]: 8.67% and 10%
NUCLEATED RED BLOOD CELLS [1]: 0 /100WBC
PLATELET COUNT [1]: 1151.33 x10E3/uL and 1162.5 x10E3/uL
ALANINE AMINOTRANSFERASE [2]: 60.67 u/L and 45.33 u/L
ALBUMIN [2]: 4.23 G/DL and 3.95 G/DL
ALKALINE PHOSPHATASE [2]: 377.67 u/L and 356.17 u/L
ASPARTATE AMINOTRANSFERASE [2]: 85.33 u/L and 81 u/L
BLOOD UREA NITROGEN [2]: 15 mg/dL and 11 mg/dL
CARBON DIOXIDE [2]: 37 mmol/L and 29.83 mmol/L
CHLORIDE [2]: 97.67 MEQ/L and 97.8 MEQ/L
CHOLESTEROL [2]: 70.67 mg/dL and 65.17 mg/dL
CREATINE PHOSPHOKINASE [2]: 361.67 u/L and 211.33 u/L
CREATININE [2]: 0.18 mg/dL and 0.11 mg/dL
GLUCOSE [2]: 154 mg/dL and 164.67 mg/dL
LACTATE DEHYDROGENASE [2]: 99 u/L and 143.17 u/L
LIPASE [2]: 12.67 u/L and 10.17 u/L
PHOSPHORUS [2]: 9.53 mg/dL and 10.88 mg/dL
POTASSIUM [2]: 5.55 MEQ/L and 6.08 MEQ/L
SODIUM [2]: 143.1 MEQ/L and 141.54 MEQ/L
TOTAL BILIRUBIN [2]: 0.2 mg/dL and 0.23 mg/dL
TOTAL PROTEIN [2]: 5.97 G/DL and 5.65 G/DL
URIC ACID [2]: 0.77 mg/dL and 1 mg/dL
ABSOLUTE BASOPHIL [3]: 0 CELLS/uL
ABSOLUTE LYMPHOCYTE [3]: 9535 CELLS/uL and 9267.83 CELLS/uL
ABSOLUTE MONOCYTE [3]: 182 CELLS/uL and 194.33 CELLS/uL
ABSOLUTE SEGMENTED NEUTROPHIL [3]: 783 CELLS/uL and 572.5 CELLS/uL
BASOPHIL [3]: 0%
EOSINOPHIL [3]: 0% and 0.33%
ERYTHROCYTE COUNT [3]: 5.35 x10E6/uL and 5.41 x10E6/uL
HEMATOCRIT [3]: 34.17% and 36.17%
LEUKOCYTE COUNT [3]: 10.5 x10E3/uL and 10.08 x10E3/uL
LYMPHOCYTE [3]: 89.67% and 92.17%
MEAN CORPUSCULAR HEMOGLOBIN [3]: 24.67 pg and 25.73 pg
MEAN CORPUSCULAR HEMOGLOBIN CONCENTRATION [3]: 38.57 G/DL and 38.45 G/DL
MEAN CORPUSCULAR VOLUME [3]: 63.9 fL and 66.97 fL
MONOCYTE [3]: 1.67% and 1.83%
NEUTROPHIL [3]: 8.67% and 5.67%
PLATELET COUNT [3]: 990 x10E3/uL and 1122.33 x10E3/uL
ALANINE AMINOTRANSFERASE [4]: 46.67 u/L and 52.83 u/L
ALBUMIN [4]: 3.97 G/DL and 4.12 G/DL
ALKALINE PHOSPHATASE [4]: 343.67 u/L and 367.33 u/L
ASPARTATE AMINOTRANSFERASE [4]: 71 u/L and 88 u/L
BLOOD UREA NITROGEN [4]: 11.67 mg/dL and 12.67 mg/dL
CARBON DIOXIDE [4]: 27 mmol/L and 33.67 mmol/L
CHLORIDE [4]: 105.33 MEQ/L and 97 MEQ/L
CHOLESTEROL [4]: 70.67 mg/dL and 67.5 mg/dL
CREATINE PHOSPHOKINASE [4]: 208.67 u/L and 358.67 u/L
CREATININE [4]: 0.1 mg/dL and 0.14 mg/dL
GLUCOSE [4]: 161.33 mg/dL and 152.33 mg/dL
LIPASE [4]: 9.33 u/L and 10.5 u/L
PHOSPHORUS [4]: 12.7 mg/dL and 10.63 mg/dL
POTASSIUM [4]: 5.59 MEQ/L and 5.99 MEQ/L
SODIUM [4]: 147.1 MEQ/L and 141.85 MEQ/L
TOTAL BILIRUBIN [4]: 0.17 mg/dL and 0.2 mg/dL
TOTAL PROTEIN [4]: 5.97 G/DL and 6.18 G/DL
URIC ACID [4]: 0.73 mg/dL and 0.52 mg/dL
ABSOLUTE BASOPHIL [5]: 0 CELLS/uL
ABSOLUTE EOSINOPHIL [5]: 39.33 CELLS/uL
ABSOLUTE LYMPHOCYTE [5]: 3794.33 CELLS/uL
